Reference: ChEMBL document CHEMBL5126595, “Identification and anti-tumor evaluation of 3-acyl-indol-based 2,4-diarylaminopyrimidine analogues as potent ALK inhibitors capable of overcoming drug-resistant mutants” (Eur J Med Chem, 2022)
The source made the active and inactive calls. The calls are words filed in the database; no cut-off is given here.

Key:
NCI-H2228 [1] = assay: Inhibition of colony formation in human NCI-H2228 cells assessed as reduction in colony area at 50 nM incubated for 3 day by crystal violet staining based assay; assay type: functional; details: NCI-H2228, 72 h
NCI-H2228 [2] = assay: Inhibition of colony formation in human NCI-H2228 cells assessed as reduction in colony area at 100 nM incubated for 3 day by crystal violet staining based assay; assay type: functional; details: NCI-H2228, 72 h
NCI-H2228 [3] = assay: Induction of apoptosis in human NCI-H2228 cells assessed as viable cells at 50 nM incubated for 48 hrs by AnnexinV-FITC/propidium iodide staining based flow cytometry analysis (reference value: 92.3 %); assay type: functional; details: read-out: Activity
[4] = MRT in Sprague-Dawley rat at 10 mg/kg, po by LC-MS/MS analysis; assay type: ADME, organism-based; details: in vivo
NCI-H2228 [5] = assay: Induction of apoptosis in human NCI-H2228 cells assessed as solidified nuclei at 25 to 100 nM incubated for 48 hrs by Hoechst 33342 staining based fluorescence microscopic analysis; assay type: functional, cell-based; details: dose 25-100 nM
NCI-H2228 [6] = assay: Induction of cell cycle arrest in human NCI-H2228 cells assessed as decrease in G2 phase cells at 25 nM incubated for 48 hrs by PI/RNase staining based flow cytometry analysis (reference value: 15.38 %); assay type: functional; parameters: scale not given: the % may be the effect or the level left
[7] = Metabolic stability in Sprague-Dawley rat liver microsomes assessed as parent compound remaining preincubated for 5 mins in the presence of NADPH followed by microsomal addition and measured upto 60 mins by HPLC analysis; assay type: ADME, Microsome; details: time < 65 min, read-out: Stability
MDA-MB-231 = assay: cells; details: Homo sapiens, MDA-MB-231, 72 h
NCI-H2228 [8] = assay: Induction of apoptosis in human NCI-H2228 cells assessed as appearance of apoptotic bodies at 25 to 100 nM incubated for 48 hrs by Hoechst 33342 staining based fluorescence microscopic analysis; assay type: functional, cell-based; details: dose 25-100 nM
[9] = Metabolic stability in Sprague-Dawley rat liver microsomes assessed as parent compound remaining measured upto 60 mins by HPLC analysis; assay type: ADME, Microsome; details: read-out: Stability
NCI-H2228 [10] = assay: Induction of cell cycle arrest in human NCI-H2228 cells assessed as increase in G1 phase cells at 100 nM incubated for 48 hrs by PI/RNase staining based flow cytometry analysis (reference value: 49.72 %); assay type: functional
[11] = Volume of distribution at steady state in Sprague-Dawley rat at 2 mg/kg, iv by LC-MS/MS analysis; assay type: ADME, organism-based; details: in vivo, read-out: Vdss
[12] = AUC (0 to infinity) in Sprague-Dawley rat at 2 mg/kg, iv by LC-MS/MS analysis; assay type: ADME, organism-based; parameters: time infinity, dose 2 mg/kg, route iv; details: in vivo
NCI-H2228 [13] = assay: Induction of apoptosis in human NCI-H2228 cells assessed as nuclei fragmentation by measuring brilliant blue fluorescence at 25 to 100 nM incubated for 48 hrs by Hoechst 33342 staining based fluorescence microscopic analysis; assay type: functional, cell-based; details: dose 25-100 nM
HT-29 = assay: cells; details: Homo sapiens, HT-29, 72 h
Description: Antiproliferative activity against human HT-29 cells assessed as inhibition of cell growth incubated for 72 hrs by MTT assay

[14] = Metabolic stability in Sprague-Dawley rat liver microsomes assessed as half-life at 10 uM preincubated for 5 mins in the presence of NADPH followed by microsomal addition and measured upto 60 mins by HPLC analysis; assay type: ADME, Microsome; details: time < 65 min
[15] = target: ALK tyrosine kinase receptor (Homo sapiens, UniProt Q9UM73); assay: Inhibition of ALK downstream signalling in human NCI-H2228 cells assessed as reduction in AKT level measured after 24 hrs by Western blot analysis; assay type: cell-based; details: dose 25-100 nM, DDE = dose-dependent effect
[16] = Clearance in Sprague-Dawley rat at 2 mg/kg, iv by LC-MS/MS analysis; assay type: ADME, organism-based; details: in vivo
[17] = Potency index, ratio of test compound IC50 to ceritinib IC50 antiproliferative activity […] EML4-ALK-G1202R cells assessed as inhibition of cell growth incubated for 72 hrs by MTT assay; assay type: functional
[18] = Antiproliferative activity […] EML4-ALK cells assessed as inhibition of cell growth incubated for 72 hrs by MTT assay; assay type: functional, cell-based
NCI-H2228 [19] = assay: Induction of apoptosis in human NCI-H2228 cells assessed as necrotic cells at 50 nM incubated for 48 hrs by AnnexinV-FITC/propidium iodide staining based flow cytometry analysis (reference value: 0.55 %); assay type: functional
NCI-H2228 [20] = assay: Antitumor activity against human NCI-H2228 cells xenografted in BALB/c nude mouse assessed as tumor growth inhibition at 50 mg/kg, IG administered every 2 days for 7 times relative to control; assay type: functional; details: NCI-H2228, po, 336 h, time 14 day, read-out: TGI
NCI-H2228 [21] = assay: Induction of apoptosis in human NCI-H2228 cells assessed as necrotic cells at 25 nM incubated for 48 hrs by AnnexinV-FITC/propidium iodide staining based flow cytometry analysis (reference value: 0.55 %); assay type: functional
NCI-H2228 [22] = assay: Induction of apoptosis in human NCI-H2228 cells assessed as total apoptotic cells at 50 nM incubated for 48 hrs by AnnexinV-FITC/propidium iodide staining based flow cytometry analysis; assay type: functional
NCI-H2228 [23] = assay: Induction of apoptosis in human NCI-H2228 cells assessed as total apoptotic cells at 25 nM incubated for 48 hrs by AnnexinV-FITC/propidium iodide staining based flow cytometry analysis; assay type: functional
[24] = target: ALK tyrosine kinase receptor (Homo sapiens, UniProt Q9UM73, L1196M); assay: Inhibition of N-terminal GST-tagged human ceritinib-resistant ALK L1196M mutant (1058 to 1620 residues) cytoplasmic domain expressed in baculovirus infected Sf21 cells incubated for 1 hrs in the presence of ATP by mobility shift assay
NCI-H2228 [25] = assay: Induction of apoptosis in human NCI-H2228 cells assessed as late apoptotic cells at 50 nM incubated for 48 hrs by AnnexinV-FITC/propidium iodide staining based flow cytometry analysis (reference value: 4.72 %); assay type: functional
NCI-H2228 [26] = assay: Induction of cell cycle arrest in human NCI-H2228 cells assessed as increase in G1 phase cells at 50 nM incubated for 48 hrs by PI/RNase staining based flow cytometry analysis (reference value: 49.72 %); assay type: functional
NCI-H2228 [27] = assay: Induction of cell cycle arrest in human NCI-H2228 cells assessed as decrease in G2 phase cells at 50 nM incubated for 48 hrs by PI/RNase staining based flow cytometry analysis (reference value: 15.38 %); assay type: functional; parameters: scale not given: the % may be the effect or the level left
NCI-H2228 [28] = assay: Induction of apoptosis in human NCI-H2228 cells assessed as early apoptotic cells at 100 nM incubated for 48 hrs by AnnexinV-FITC/propidium iodide staining based flow cytometry analysis (reference value: 2.45 %); assay type: functional
[29] = Toxicity in BALB/c nude mouse xenografted with human NCI-H2228 cells assessed as effect on body weight at 25 to 50 mg/kg, IG administered every 2 days for 7 times; assay type: organism-based; details: in vivo, po, 48 h, dose 25-50 mg/kg, time 2 day
A549 = assay: Antiproliferative activity against EGFR positive human A549 cells assessed as inhibition of cell growth incubated for 72 hrs by MTT assay; assay type: functional, cell-based; details: A549, 72 h
[30] = AUC (0 to t) in Sprague-Dawley rat at 2 mg/kg, iv by LC-MS/MS analysis; assay type: ADME, organism-based; parameters: dose 2 mg/kg, route iv; details: in vivo
[31] = AUC (0 to t) in Sprague-Dawley rat at 10 mg/kg, po by LC-MS/MS analysis; assay type: ADME, organism-based; parameters: dose 10 mg/kg, route po; details: in vivo

Sequence of ALK tyrosine kinase receptor (Homo sapiens, UniProt Q9UM73) (Q9UM73 19-1620 limits assumed): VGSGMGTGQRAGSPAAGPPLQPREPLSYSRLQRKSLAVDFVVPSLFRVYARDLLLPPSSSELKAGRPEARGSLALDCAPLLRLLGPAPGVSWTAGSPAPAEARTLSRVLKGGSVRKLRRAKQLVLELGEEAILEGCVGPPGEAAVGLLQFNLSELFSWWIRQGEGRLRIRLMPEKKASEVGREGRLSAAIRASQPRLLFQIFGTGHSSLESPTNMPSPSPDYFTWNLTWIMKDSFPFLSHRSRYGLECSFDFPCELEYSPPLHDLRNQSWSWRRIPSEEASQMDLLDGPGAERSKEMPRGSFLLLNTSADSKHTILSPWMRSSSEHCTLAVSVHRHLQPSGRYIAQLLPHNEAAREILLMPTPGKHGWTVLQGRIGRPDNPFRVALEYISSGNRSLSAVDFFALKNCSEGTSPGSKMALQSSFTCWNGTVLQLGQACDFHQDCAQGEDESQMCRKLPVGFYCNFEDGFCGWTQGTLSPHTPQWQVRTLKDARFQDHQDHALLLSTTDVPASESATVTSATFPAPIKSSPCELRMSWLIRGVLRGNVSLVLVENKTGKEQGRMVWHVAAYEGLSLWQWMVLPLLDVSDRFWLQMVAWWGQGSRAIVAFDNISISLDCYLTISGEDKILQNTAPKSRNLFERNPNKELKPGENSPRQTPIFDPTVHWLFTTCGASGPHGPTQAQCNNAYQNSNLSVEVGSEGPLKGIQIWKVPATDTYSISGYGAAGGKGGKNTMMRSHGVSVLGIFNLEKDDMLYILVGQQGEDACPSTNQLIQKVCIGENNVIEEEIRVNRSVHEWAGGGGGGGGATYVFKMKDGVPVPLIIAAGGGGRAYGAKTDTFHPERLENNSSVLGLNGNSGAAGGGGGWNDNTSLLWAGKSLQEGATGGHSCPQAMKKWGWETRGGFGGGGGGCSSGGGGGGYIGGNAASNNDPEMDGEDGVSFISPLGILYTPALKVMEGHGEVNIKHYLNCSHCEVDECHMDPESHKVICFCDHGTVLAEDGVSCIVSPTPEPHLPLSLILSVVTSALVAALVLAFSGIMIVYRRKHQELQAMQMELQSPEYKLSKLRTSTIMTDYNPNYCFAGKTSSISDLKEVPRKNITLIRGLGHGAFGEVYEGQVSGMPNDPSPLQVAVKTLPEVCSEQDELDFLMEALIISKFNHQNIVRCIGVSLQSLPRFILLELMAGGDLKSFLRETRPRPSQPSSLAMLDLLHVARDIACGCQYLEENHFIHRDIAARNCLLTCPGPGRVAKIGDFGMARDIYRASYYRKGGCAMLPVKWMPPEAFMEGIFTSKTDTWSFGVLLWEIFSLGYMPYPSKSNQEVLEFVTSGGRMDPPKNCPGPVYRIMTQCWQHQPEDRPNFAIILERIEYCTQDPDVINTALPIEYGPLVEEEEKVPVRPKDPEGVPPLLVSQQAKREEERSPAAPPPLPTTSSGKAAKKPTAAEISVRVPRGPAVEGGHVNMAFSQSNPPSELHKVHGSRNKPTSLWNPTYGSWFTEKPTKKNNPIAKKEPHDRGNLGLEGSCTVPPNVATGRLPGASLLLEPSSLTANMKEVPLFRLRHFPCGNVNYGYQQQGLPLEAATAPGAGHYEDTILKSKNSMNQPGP
Sequence of ALK tyrosine kinase receptor (Homo sapiens, UniProt Q9UM73, L1196M) (Q9UM73 19-1620 L1196M limits assumed): as the sequence (Q9UM73 19-1620 limits assumed) above, with L1178M counted along it

With `CNC(=O)c1ccccc1Nc1nc(Nc2ccc3c(C(=O)N(C)C)c(C)[nH]c3c2)ncc1Cl` the inhibition at 0.05 µM (NCI-H2228 [1]) was 50%, the inhibition at 0.1 µM (NCI-H2228 [2]) was 100% and the viability at 0.05 µM (NCI-H2228 [3]) was 74.4%. The MRT [4] was 6.6 h, the Activity (NCI-H2228 [5]) was “Active” and the Activity (NCI-H2228 [6]) was 12.23%. The remaining at 1 h [7] was 29.7%, the IC50 (MDA-MB-231) was 1.88 µM and the Activity (NCI-H2228 [8]) was “Active”. It also gave a remaining at 1 h [9] of 90%, an Activity (NCI-H2228 [10]) of 58.51% and a Vd [11] of 7.9 L/kg. The AUC(0-inf) [12] was 922 ng·h/mL, the Activity (NCI-H2228 [13]) was “Active” and the IC50 (HT-29) was 2.01 µM. The half-life at 10 µM [14] was 0.603 h, the inhibition [15] was “Dde” and the clearance [16] was 36.2 mL/min/kg. For the same molecule, the “Ratio IC50” value [17] was 61, the IC50 [18] was 0.021 µM and the Activity (NCI-H2228 [19]) was 1.66%. For the same molecule, the inhibition in vivo at 50 mg/kg (NCI-H2228 [20]) was 93.5%, the Activity (NCI-H2228 [21]) was 1.68% and the Activity (NCI-H2228 [22]) was 23.94%. The Activity (NCI-H2228 [23]) was 14.23%, the IC50 [24] was 0.0037 µM and the Activity (NCI-H2228 [25]) was 16.5%. It also gave an Activity (NCI-H2228 [26]) of 54.44%, an Activity (NCI-H2228 [27]) of 13.28% and an Activity (NCI-H2228 [28]) of 8.7%. The Activity [29] was “Non-Toxic”, the IC50 (A549) was 2.39 µM and the AUC(0-t) [30] was 879 ng·h/mL. For the same molecule, the AUC(0-t) [31] was 1720 ng·h/mL.
